Experimental findings from patent US20230113037A1 (Bayer Aktiengesellschaft, priority 2019, published 2023) are described below.

Test [1] has as its target T1, AHR (Homo sapiens, UniProt P35869).
T1 construct: U87 MG glioblastoma cells (ATCC #HTB-14) endogenously expressing AHR; endogenous in cells; host or cells: U87 MG glioblastoma cells (ATCC #HTB-14)
T1 sequence (P35869 11-848): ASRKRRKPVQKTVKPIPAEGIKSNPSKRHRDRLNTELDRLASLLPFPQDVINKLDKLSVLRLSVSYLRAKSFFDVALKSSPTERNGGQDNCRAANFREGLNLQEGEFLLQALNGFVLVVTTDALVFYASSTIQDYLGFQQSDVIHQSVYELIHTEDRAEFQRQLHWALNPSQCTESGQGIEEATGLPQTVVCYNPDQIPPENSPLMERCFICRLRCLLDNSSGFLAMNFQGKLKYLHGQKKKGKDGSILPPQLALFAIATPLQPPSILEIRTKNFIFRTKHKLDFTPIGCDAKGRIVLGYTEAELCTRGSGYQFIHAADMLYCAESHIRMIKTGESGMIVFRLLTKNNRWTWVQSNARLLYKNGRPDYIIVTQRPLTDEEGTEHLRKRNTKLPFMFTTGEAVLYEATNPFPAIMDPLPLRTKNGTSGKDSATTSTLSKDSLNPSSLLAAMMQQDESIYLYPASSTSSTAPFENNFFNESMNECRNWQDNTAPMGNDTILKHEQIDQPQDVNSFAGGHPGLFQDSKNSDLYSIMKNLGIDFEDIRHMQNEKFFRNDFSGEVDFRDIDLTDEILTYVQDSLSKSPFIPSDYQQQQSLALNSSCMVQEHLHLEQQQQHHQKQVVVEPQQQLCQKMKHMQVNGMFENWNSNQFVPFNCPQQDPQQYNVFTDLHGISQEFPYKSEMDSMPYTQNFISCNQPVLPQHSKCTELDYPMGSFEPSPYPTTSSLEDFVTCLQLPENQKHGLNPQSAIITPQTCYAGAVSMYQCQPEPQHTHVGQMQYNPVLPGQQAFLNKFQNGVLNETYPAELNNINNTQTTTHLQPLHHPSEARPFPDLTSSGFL
The test is described as follows: In vitro assay 1: antagonism in human cell line (AHR transactivation, firefly luciferase reporter, kynurenic acid prestimulated). The format is cell-based. Conditions: AHR Antagonism Human IC50 [M]. In a few lines: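 Antagonism is measured against kynurenic acid prestimulation in U87 MG glioblastoma cells carrying stable DRE-luciferase and Renilla reporters. Positive inhibition control: 150 μM kynurenic acid with 5 μM staurosporine. Values are normalized to controls; repeats are averaged or given as medians.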

In test [2] the target is T2, AHR (Mus musculus, UniProt P30561).
T2 sequence (P30561 1-848 P471L/N533S/M589L): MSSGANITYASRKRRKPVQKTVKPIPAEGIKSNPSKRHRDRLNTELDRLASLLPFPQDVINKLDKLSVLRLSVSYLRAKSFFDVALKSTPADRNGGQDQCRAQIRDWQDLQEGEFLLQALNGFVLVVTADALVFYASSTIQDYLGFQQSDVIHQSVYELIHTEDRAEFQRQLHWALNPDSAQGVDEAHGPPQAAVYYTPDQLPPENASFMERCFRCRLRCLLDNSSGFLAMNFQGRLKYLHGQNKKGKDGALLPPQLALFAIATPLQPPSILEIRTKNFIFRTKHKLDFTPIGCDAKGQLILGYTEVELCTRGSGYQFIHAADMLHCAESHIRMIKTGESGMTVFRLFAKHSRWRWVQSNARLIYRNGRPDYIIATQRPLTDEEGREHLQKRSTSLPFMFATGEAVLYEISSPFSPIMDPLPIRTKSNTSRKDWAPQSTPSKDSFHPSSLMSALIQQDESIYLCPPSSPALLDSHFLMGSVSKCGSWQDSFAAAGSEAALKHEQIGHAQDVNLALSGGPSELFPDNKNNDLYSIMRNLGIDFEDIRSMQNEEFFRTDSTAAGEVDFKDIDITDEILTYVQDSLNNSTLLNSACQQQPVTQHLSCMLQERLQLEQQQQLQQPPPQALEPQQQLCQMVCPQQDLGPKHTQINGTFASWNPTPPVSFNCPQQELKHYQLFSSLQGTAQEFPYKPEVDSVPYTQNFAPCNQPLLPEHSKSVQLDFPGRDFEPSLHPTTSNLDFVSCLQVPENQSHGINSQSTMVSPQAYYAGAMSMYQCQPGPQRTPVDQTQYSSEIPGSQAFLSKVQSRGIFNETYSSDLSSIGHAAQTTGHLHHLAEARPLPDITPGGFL
As to the kind of experiment: In vitro assay 3: antagonism in mouse cell line (AHR transactivation, firefly luciferase reporter, kynurenic acid prestimulated). The format is cell-based. The conditions noted are these: 200 μM kynurenic acid, 20 hours, read-out: AHR Antagonism Mouse IC50. A digest of the protocol: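 Kynurenic acid-prestimulated mouse reporter cells; stable AHR-inducible firefly luc construct with DRE sites in promoter. No-agonist wells = positive inhibition ctrl. Luminescence normalized to pos/neg ctrls; n>1 reported as mean or median.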

Where [3] appears, read: Hepa 1c1c7 cells, firefly luciferase reporter.

The structures appear in SMILES notation. Read-outs that look alike come from different tables or passages of the source.

Consider `CCNC(=O)[C@H](CC)Nc1nc2c(Br)cccc2c2nc(-c3ccc(Cl)cc3OC(F)F)nn12` [Example 799, (2S)-2-({7-bromo-2-[4-chloro-2-(difluoromethoxy)phenyl][1,2,4]triazolo[1,5-c]quinazolin-5-yl}amino)-N-ethylbutanamide], for which the IC50 in test [1] (firefly luciferase reporter) amounted to 4.21e-08 M; in test [2] (setting [3]), 18.5 nM.

As for `Cc1n[nH]cc1-c1nc2c3cccc(C(F)(F)F)c3nc(N[C@@H]3CCCCNC3=O)n2n1` [Example 746, (3R)-3-{[2-(3-methyl-1H-pyrazol-4-yl)-7-(trifluoromethyl)[1,2,4]triazolo[1,5-c]quinazolin-5-yl]amino}azepan-2-one], the 50% inhibitory concentration (IC50) was 7.48e-09 M in test [1] and 45.6 nM in test [2] (mouse Hepa 1c1c7 cells).

In the case of `CCNC(=O)[C@@H](CC)Nc1nc2c(Br)cccc2c2nc(-c3ccc(Cl)cc3OC(F)F)nn12` [Example 798, (2R)-2-({7-bromo-2-[4-chloro-2-(difluoromethoxy)phenyl][1,2,4]triazolo[1,5-c]quinazolin-5-yl}amino)-N-ethylbutanamide], the IC50 in test [1] (firefly luciferase reporter) came to 7.57e-10 M; in test [2] (setting [3]), 0.811 nM.

For the compound `CCCCNC(=O)[C@@H](C)Nc1nc2c(Br)cccc2c2nc(-c3ccc(Cl)cc3OC(F)F)nn12` [Example 684, N^2-{7-bromo-2-[4-chloro-2-(difluoromethoxy)phenyl][1,2,4]triazolo[1,5-c]quinazolin-5-yl}-N-butyl-D-alaninamide], the figures for the IC50 in test [1] and in test [2] (mouse Hepa 1c1c7 cells) were 3.39e-09 M and 0.896 nM, respectively.

Take `CC[C@@H](Nc1nc2ccccc2c2nc(-c3ccsc3)nn12)C(N)=O` [Example 344]: the figures for the half-maximal inhibitory concentration (IC50) in test [1] and in test [2] (mouse Hepa 1c1c7 cells) were 3.57e-09 M and 0.628 nM, respectively.

For the compound `O=C1NCC[C@H]1Nc1nc2ccccc2c2nc(-c3ccncc3F)nn12` [Example 483, (3R)-3-{[2-(3-fluoropyridin-4-yl)[1,2,4]triazolo[1,5-c]quinazolin-5-yl]amino}pyrrolidin-2-one], the concentration for half-maximal inhibition (IC50) in test [1] turned out to be 1.45e-06 M; in test [2] (mouse Hepa 1c1c7 cells) it was 2170 nM.

With `O=C1NCCNC[C@H]1Nc1nc2ccccc2c2nc(-c3ccccc3OC(F)(F)F)nn12` [Example 720, (6R)-6-({2-[2-(trifluoromethoxy)phenyl][1,2,4]triazolo[1,5-c]quinazolin-5-yl}amino)-1,4-diazepan-5-one], the half-inhibitory concentration (IC50) in test [1] is 1.45e-07 M; in test [2] (mouse Hepa 1c1c7 cells), 63.8 nM.

Regarding `CC(C)S(=O)(=O)c1cccc2c1nc(N[C@@H]1CCCCNC1=O)n1nc(-c3cnn(C)c3)nc21` [Example 845, (3R)-3-{[2-(1-methyl-1H-pyrazol-4-yl)-7-(propane-2-sulfonyl)[1,2,4]triazolo[1,5-c]quinazolin-5-yl]amino}azepan-2-one], the IC50 in test [1] (firefly luciferase reporter) was 6.71e-08 M; in test [2] (setting [3]), 247 nM.

For `CCCNC(=O)[C@@H](C)Nc1nc2ccccc2c2nc(-c3ccccc3OC(F)(F)F)nn12` [Example 465, N-propyl-N^2-{2-[2-(trifluoromethoxy)phenyl][1,2,4]triazolo[1,5-c]quinazolin-5-yl}-D-alaninamide], the IC50 in test [1] is 1.34e-08 M; in test [2] (mouse Hepa 1c1c7 cells), 3.87 nM.

With `CS(=N)(=O)c1cccc(-c2nc3c4ccccc4nc(N[C@@H]4CCCCNC4=O)n3n2)c1` (single isomer, unassigned) [Example 659], the half-maximal inhibitory concentration (IC50) in test [1] was 1.62e-06 M; in test [2] (mouse Hepa 1c1c7 cells), 4500 nM.

Take `CC[C@@H](Nc1nc2c(Br)cccc2c2nc(-c3ccc(OC)cc3)nn12)C(N)=O` [Example 557, (2R)-2-{[7-bromo-2-(4-methoxyphenyl)[1,2,4]triazolo[1,5-c]quinazolin-5-yl]amino}butanamide]: the figures for the IC50 in test [1] and in test [2] (mouse Hepa 1c1c7 cells) were 2.39e-10 M and 0.865 nM, respectively.

Regarding `CCNC(=O)C(CC)Nc1nc2ccccc2c2nc(-c3cccc(OC(F)(F)F)c3)nn12` (single isomer, unassigned) [Example 319, N-ethyl-2-({2-[3-(trifluoromethoxy)phenyl][1,2,4]triazolo[1,5-c]quinazolin-5-yl}amino)butanamide], the results for the 50% inhibitory concentration (IC50) in test [1] and in test [2] (mouse Hepa 1c1c7 cells) were 1.74e-08 M and 0.502 nM, respectively.

For `Cc1nn(C)c(C)c1-c1nc2c3cccc(C(F)(F)F)c3nc(N[C@@H]3CCCCNC3=O)n2n1` [Example 750, (3R)-3-{[7-(trifluoromethyl)-2-(1,3,5-trimethyl-1H-pyrazol-4-yl)[1,2,4]triazolo[1,5-c]quinazolin-5-yl]amino}azepan-2-one], the IC50 was found to be 3.56e-09 M in test [1] and 1.41 nM in test [2] (mouse Hepa 1c1c7 cells).

`CCNC(=O)C(CC)Nc1nc2ccccc2c2nc(-c3cccc(OC(F)(F)F)c3)nn12` (stereo not shown) [Example 318, N-ethyl-2-({2-[3-(trifluoromethoxy)phenyl][1,2J4]triazolo[1,5-c]quinazolin-5-yl}amino)butanamide]: the IC50 in test [1] turned out to be 1.29e-08 M; in test [2] (mouse Hepa 1c1c7 cells), 0.603 nM.

Regarding `Cn1cc(-c2nc3c4c(C(F)(F)F)cccc4nc(N[C@@H]4CNCCNC4=O)n3n2)cn1` [Example 286, (6R)-6-{[2-(1-methyl-1H-pyrazol-4-yl)-10-(trifluoromethyl)[1,2,4]triazolo[1,5-c]quinazolin-5-yl]amino}-1,4-diazepan-5-one], the IC50 was found to be 2.78e-06 M in test [1] and 3350 nM in test [2] (mouse Hepa 1c1c7 cells).

In the case of `COc1ccc(-c2nc3c4cccc(OC)c4nc(N[C@@H]4CCCCNC4=O)n3n2)cc1` [Example 205, (3R)-3-{[7-methoxy-2-(4-methoxyphenyl)[1,2,4]triazolo[1,5-c]quinazolin-5-yl]amino}azepan-2-one], the IC50 in test [1] came to 2.15e-09 M; in test [2] (mouse Hepa 1c1c7 cells), 7.65 nM.

Take `Cc1cccc2c1nc(N[C@@H]1CNCCNC1=O)n1nc(-c3cnn(C)c3)nc21` [Example 271, (6R)-6-{[7-methyl-2-(1-methyl-1H-pyrazol-4-yl)[1,2,4]triazolo[1,5-c]quinazolin-5-yl]amino}-1,4-diazepan-5-one]: the IC50 in test [1] came to 7.02e-07 M; in test [2] (mouse Hepa 1c1c7 cells), 13900 nM.

`CC[C@@H](Nc1nc2ccccc2c2nc(-c3cnn(C)c3)nn12)C(N)=O` [Example 17, (2R)-2-{[2-(1-methyl-1H-pyrazol-4-yl)[1,2,4]triazolo[1,5-c]quinazolin-5-yl]amino}butanamide]: the half-maximal inhibitory concentration (IC50) was 7.44e-08 M in test [1] and 27.6 nM in test [2] (mouse Hepa 1c1c7 cells).

Consider `COc1cccc(-c2nc3c4ccccc4nc(NC4CNCCNC4=O)n3n2)c1` (single isomer, unassigned) [Example 117, 6-{[2-(3-methoxyphenyl)[1,2,4]triazolo[1,5-c]quinazolin-5-yl]amino}-1,4-diazepan-5-one], for which the 50% inhibitory concentration (IC50) came out at 9.04e-08 M in test [1] and 76.5 nM in test [2] (mouse Hepa 1c1c7 cells).

`CCOC(=O)[C@@H](C)Nc1nc2c(C(F)(F)F)cccc2c2nc(-c3cnn(C)c3)nn12` [Example 864, ethyl N-[2-(1-methyl-1H-pyrazol-4-yl)-7-(trifluoromethyl)[1,2,4]triazolo[1,5-c]quinazolin-5-yl]-D-alaninate]: the results for the half-inhibitory concentration (IC50) in test [1] (firefly luciferase reporter) and in test [2] (setting [3]) were 2.57e-08 M and 378 nM, respectively.
